In PubChem BioAssay (NCI):
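Cultured in 96-well plates, cells were exposed to test compound for 48 hours across five concentrations. Here, GI50 denotes the concentration required for 50% inhibition of growth. TGI denotes the concentration required for complete inhibition of growth.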

Key:
Assay in all cases: NCI tumour cell line growth inhibition, 48 h
786-0 renal = system: 786-0 renal
A498 renal = system: A498 renal
A549 NSCLC = system: A549 NSCLC
ACHN renal = system: ACHN renal
BT-549 breast = system: BT-549 breast
CAKI-1 renal = system: CAKI-1 renal
CCRF-CEM leukemia = system: CCRF-CEM leukemia
COLO 205 colon = system: COLO 205 colon
DU-145 prostate = system: DU-145 prostate
EKVX NSCLC = system: EKVX NSCLC
HCC-2998 colon = system: HCC-2998 colon
HCT-116 colon = system: HCT-116 colon
HCT-15 colon = system: HCT-15 colon
HL-60(TB) leukemia = system: HL-60(TB) leukemia
HOP-62 NSCLC = system: HOP-62 NSCLC
HOP-92 NSCLC = system: HOP-92 NSCLC
HS 578T breast = system: HS 578T breast
HT29 colon = system: HT29 colon
IGROV1 ovarian = system: IGROV1 ovarian
K-562 leukemia = system: K-562 leukemia
KM12 colon = system: KM12 colon
LOX IMVI melanoma = system: LOX IMVI melanoma
M14 melanoma = system: M14 melanoma
MALME-3M melanoma = system: MALME-3M melanoma
MCF7 breast = system: MCF7 breast
MDA-MB-231 breast = system: MDA-MB-231 breast
MDA-MB-435 = system: MDA-MB-435
MOLT-4 leukemia = system: MOLT-4 leukemia
NCI-H226 lung = system: NCI-H226 lung
NCI-H23 lung = system: NCI-H23 lung
NCI-H460 lung = system: NCI-H460 lung
NCI-H522 lung = system: NCI-H522 lung
NCI/ADR-RES ovarian = system: NCI/ADR-RES ovarian
OVCAR-3 ovarian = system: OVCAR-3 ovarian
OVCAR-4 ovarian = system: OVCAR-4 ovarian
OVCAR-5 ovarian = system: OVCAR-5 ovarian
OVCAR-8 ovarian = system: OVCAR-8 ovarian
PC-3 prostate = system: PC-3 prostate
RPMI-8226 leukemia = system: RPMI-8226 leukemia
RXF 393 renal = system: RXF 393 renal
SF-268 CNS = system: SF-268 CNS
SF-295 CNS = system: SF-295 CNS
SF-539 CNS = system: SF-539 CNS
SK-MEL-2 melanoma = system: SK-MEL-2 melanoma
SK-MEL-28 melanoma = system: SK-MEL-28 melanoma
SK-MEL-5 melanoma = system: SK-MEL-5 melanoma
SK-OV-3 ovarian = system: SK-OV-3 ovarian
SNB-19 CNS = system: SNB-19 CNS
SNB-75 CNS = system: SNB-75 CNS
SR leukemia = system: SR leukemia
SW-620 colon = system: SW-620 colon
T-47D breast = system: T-47D breast
TK-10 renal = system: TK-10 renal
U251 CNS = system: U251 CNS
UACC-257 melanoma = system: UACC-257 melanoma
UACC-62 melanoma = system: UACC-62 melanoma
UO-31 renal = system: UO-31 renal

Fc1ccc2[nH]cc(SSc3c[nH]c4ccc(F)cc34)c2c1
GI50 (786-0 renal): 6.8 µM
TGI (786-0 renal): 24.8 µM
GI50 (A498 renal): 3.61 µM
TGI (A498 renal): 14.4 µM
GI50 (A549 NSCLC): 4.98 µM
TGI (A549 NSCLC): 87.7 µM
GI50 (ACHN renal): 4.34 µM
TGI (ACHN renal): 34.3 µM
GI50 (BT-549 breast): 4.94 µM
TGI (BT-549 breast): 24.4 µM
GI50 (CAKI-1 renal): 3.52 µM
TGI (CAKI-1 renal): 21.7 µM
GI50 (CCRF-CEM leukemia): 2540 nM
TGI (CCRF-CEM leukemia): 8.56 µM
GI50 (COLO 205 colon): 3.83 µM
TGI (COLO 205 colon): 17.4 µM
GI50 (DU-145 prostate): 11.6 µM
TGI (DU-145 prostate): 31.1 µM
GI50 (EKVX NSCLC): 3.03 µM
TGI (EKVX NSCLC): 15.7 µM
GI50 (HCC-2998 colon): 6.34 µM
TGI (HCC-2998 colon): 23.3 µM
GI50 (HCT-116 colon): 3.98 µM
TGI (HCT-116 colon): > 100 µM
GI50 (HCT-15 colon): 2100 nM
TGI (HCT-15 colon): 22 µM
GI50 (HL-60(TB) leukemia): 1830 nM
TGI (HL-60(TB) leukemia): 6.57 µM
GI50 (HOP-62 NSCLC): 6.33 µM
TGI (HOP-62 NSCLC): 57.2 µM
GI50 (HOP-92 NSCLC): 1950 nM
TGI (HOP-92 NSCLC): 7.92 µM
GI50 (HS 578T breast): 4.22 µM
TGI (HS 578T breast): 31.1 µM
GI50 (HT29 colon): 5.46 µM
TGI (HT29 colon): 23.9 µM
GI50 (IGROV1 ovarian): 5.35 µM
TGI (IGROV1 ovarian): 20.8 µM
GI50 (K-562 leukemia): 3.89 µM
TGI (K-562 leukemia): > 100 µM
GI50 (KM12 colon): 3.76 µM
TGI (KM12 colon): 16.1 µM
GI50 (LOX IMVI melanoma): 3.18 µM
TGI (LOX IMVI melanoma): 17.4 µM
GI50 (M14 melanoma): 5.29 µM
TGI (M14 melanoma): > 100 µM
GI50 (MALME-3M melanoma): 14.6 µM
TGI (MALME-3M melanoma): 34 µM
GI50 (MCF7 breast): 3.87 µM
TGI (MCF7 breast): 20 µM
GI50 (MDA-MB-231 breast): 4.17 µM
TGI (MDA-MB-231 breast): 26.8 µM
GI50 (MDA-MB-435): 4.62 µM
TGI (MDA-MB-435): 21.5 µM
GI50 (MOLT-4 leukemia): 2710 nM
TGI (MOLT-4 leukemia): 33.4 µM
GI50 (NCI-H226 lung): 2700 nM
TGI (NCI-H226 lung): 7.86 µM
GI50 (NCI-H23 lung): 16.7 µM
TGI (NCI-H23 lung): 77.5 µM
GI50 (NCI-H460 lung): 4.44 µM
TGI (NCI-H460 lung): 19.9 µM
GI50 (NCI-H522 lung): 2480 nM
TGI (NCI-H522 lung): 7.67 µM
GI50 (NCI/ADR-RES ovarian): 7.1 µM
TGI (NCI/ADR-RES ovarian): > 100 µM
GI50 (OVCAR-3 ovarian): 4.52 µM
TGI (OVCAR-3 ovarian): 18.3 µM
GI50 (OVCAR-4 ovarian): 3.87 µM
TGI (OVCAR-4 ovarian): 18.2 µM
GI50 (OVCAR-5 ovarian): 12.7 µM
TGI (OVCAR-5 ovarian): 39.9 µM
GI50 (OVCAR-8 ovarian): 5.73 µM
TGI (OVCAR-8 ovarian): 42.8 µM
GI50 (PC-3 prostate): 861 nM
TGI (PC-3 prostate): 12 µM
GI50 (RPMI-8226 leukemia): 1500 nM
TGI (RPMI-8226 leukemia): 6.46 µM
GI50 (RXF 393 renal): 659 nM
TGI (RXF 393 renal): 17 µM
GI50 (SF-268 CNS): 5.07 µM
TGI (SF-268 CNS): 21.9 µM
GI50 (SF-295 CNS): 3.04 µM
TGI (SF-295 CNS): 11.2 µM
GI50 (SF-539 CNS): 3.77 µM
TGI (SF-539 CNS): 14.7 µM
GI50 (SK-MEL-2 melanoma): 3.62 µM
TGI (SK-MEL-2 melanoma): 17 µM
GI50 (SK-MEL-28 melanoma): 5.71 µM
TGI (SK-MEL-28 melanoma): 20.3 µM
GI50 (SK-MEL-5 melanoma): 5.13 µM
TGI (SK-MEL-5 melanoma): 18.3 µM
GI50 (SK-OV-3 ovarian): 6.13 µM
TGI (SK-OV-3 ovarian): 22.8 µM
GI50 (SNB-19 CNS): 5.21 µM
TGI (SNB-19 CNS): 22.1 µM
GI50 (SNB-75 CNS): 3.12 µM
TGI (SNB-75 CNS): 15.9 µM
GI50 (SR leukemia): 2290 nM
TGI (SR leukemia): 11.3 µM
GI50 (SW-620 colon): 8.22 µM
TGI (SW-620 colon): 26 µM
GI50 (T-47D breast): 2540 nM
TGI (T-47D breast): 20.5 µM
GI50 (TK-10 renal): 10.1 µM
TGI (TK-10 renal): 24.6 µM
GI50 (U251 CNS): 3.82 µM
TGI (U251 CNS): 28 µM
GI50 (UACC-257 melanoma): 8.51 µM
TGI (UACC-257 melanoma): 25.3 µM
GI50 (UACC-62 melanoma): 2830 nM
TGI (UACC-62 melanoma): 13.8 µM
GI50 (UO-31 renal): 4.83 µM
TGI (UO-31 renal): 52.3 µM
